Experimental data as given in patent US20260297081A1, “COMPOUNDS AND METHODS OF TREATING CANCERS” (Cullgen Inc., priority 2023, published 2026).

Biological target: CDK4 (Homo sapiens, UniProt P11802+Q16531)
Assay: HiBiT detection of HiBiT-tagged CDK4 protein level in MCF7 cells, 16 hours (Table 8)
Format: cell-based
Parameters: expressed in transfected cells; host or cells: MCF7
Details: MCF7 cells stably expressing HiBiT tagged target proteins; for activity at 0.01 µM: 10 nM, read-out: % CDK4 Relative Level (10 nM); for activity at 0.1 µM: 100 nM, read-out: % CDK4 Relative Level (100 nM)
Procedure: HiBiT detection system quantitatively measures total amounts of HiBiT-tagged proteins using a luminescent based method. MCF7 cells stably expressing HiBiT tagged target proteins were treated with heterobifunctional compounds at indicated concentrations for 16 hours, then lysed with Nano-Glo HiBiT Lytic detection reagents.

Sequence of CDK4 (P11802 whole entry): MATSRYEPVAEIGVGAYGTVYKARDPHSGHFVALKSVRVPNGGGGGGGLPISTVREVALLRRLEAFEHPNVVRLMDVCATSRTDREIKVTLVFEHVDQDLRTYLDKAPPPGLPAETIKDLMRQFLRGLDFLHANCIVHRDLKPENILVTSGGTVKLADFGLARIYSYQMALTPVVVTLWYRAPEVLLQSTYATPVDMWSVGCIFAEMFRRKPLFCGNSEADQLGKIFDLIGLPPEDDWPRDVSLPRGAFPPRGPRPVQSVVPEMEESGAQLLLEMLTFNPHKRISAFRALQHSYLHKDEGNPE
Sequence of CDK4 (P24385 whole entry partner): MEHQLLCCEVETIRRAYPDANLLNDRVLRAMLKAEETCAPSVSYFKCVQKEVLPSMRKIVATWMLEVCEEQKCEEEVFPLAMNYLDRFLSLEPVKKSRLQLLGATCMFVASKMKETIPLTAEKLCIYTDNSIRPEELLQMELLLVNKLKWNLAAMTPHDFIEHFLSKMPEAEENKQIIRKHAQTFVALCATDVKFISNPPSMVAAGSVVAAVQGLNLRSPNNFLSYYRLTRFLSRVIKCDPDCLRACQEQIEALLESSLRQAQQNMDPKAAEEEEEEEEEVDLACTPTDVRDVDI
Sequence of CDK4 (Q16531 2-1140 limits assumed): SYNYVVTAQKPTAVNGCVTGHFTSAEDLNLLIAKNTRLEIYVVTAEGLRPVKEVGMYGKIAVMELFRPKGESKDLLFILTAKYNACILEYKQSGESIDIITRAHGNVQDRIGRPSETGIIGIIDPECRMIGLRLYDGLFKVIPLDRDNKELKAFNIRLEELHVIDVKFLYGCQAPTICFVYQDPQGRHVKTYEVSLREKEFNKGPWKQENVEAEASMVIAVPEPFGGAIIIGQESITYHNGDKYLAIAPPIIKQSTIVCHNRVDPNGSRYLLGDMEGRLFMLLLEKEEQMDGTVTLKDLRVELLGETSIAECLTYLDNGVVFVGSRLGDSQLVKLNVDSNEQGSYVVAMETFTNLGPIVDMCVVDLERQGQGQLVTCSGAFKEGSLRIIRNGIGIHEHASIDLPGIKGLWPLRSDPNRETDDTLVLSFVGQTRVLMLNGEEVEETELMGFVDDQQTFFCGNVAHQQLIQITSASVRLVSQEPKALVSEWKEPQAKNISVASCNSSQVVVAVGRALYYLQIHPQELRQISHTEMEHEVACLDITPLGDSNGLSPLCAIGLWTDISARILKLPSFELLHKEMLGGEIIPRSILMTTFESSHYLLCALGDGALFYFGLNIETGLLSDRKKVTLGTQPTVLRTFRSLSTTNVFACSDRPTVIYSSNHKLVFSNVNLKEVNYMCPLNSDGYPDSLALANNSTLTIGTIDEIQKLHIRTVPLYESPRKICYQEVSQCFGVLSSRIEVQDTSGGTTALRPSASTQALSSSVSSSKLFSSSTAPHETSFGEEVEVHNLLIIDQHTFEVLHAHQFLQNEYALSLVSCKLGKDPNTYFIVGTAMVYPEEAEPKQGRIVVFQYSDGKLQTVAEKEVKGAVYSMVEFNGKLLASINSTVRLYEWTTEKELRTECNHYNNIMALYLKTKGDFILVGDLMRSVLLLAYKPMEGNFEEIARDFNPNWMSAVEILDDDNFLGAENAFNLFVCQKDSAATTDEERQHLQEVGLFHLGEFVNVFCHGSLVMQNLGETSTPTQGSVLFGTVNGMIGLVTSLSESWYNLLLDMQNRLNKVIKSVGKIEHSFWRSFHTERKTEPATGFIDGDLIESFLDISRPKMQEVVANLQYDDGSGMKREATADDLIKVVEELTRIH

Compound: CNc1ccc(C(=O)Nc2ccc(N(C)C)nn2)c(NCCOCCC(=O)N2CCN(c3ccc(Nc4ncc(F)c(-c5cc(F)c6nc(C)n(C(C)C)c6c5)n4)nc3)CC2)n1 [CPD-654, N-(6-(dimethylamino)pyridazin-3-yl)-2-((2-(3-(4-(6-((5-fluoro-4-(4-fluoro-1-isopropyl-2-methyl-1H-benzo[d]imidazol-6-yl)pyrimidin-2-yl)amino)pyridin-3-yl)piperazin-1-yl)-3-oxopropoxy)ethyl)amino)-6-(methylamino)nicotinamide]
- activity at 0.01 µM: > 85%
- activity at 0.1 µM: > 85%

Compound: CNc1ccc(C(=O)Nc2ccc(N(C)C)nn2)c(NCCCCCCCNC(=O)CN2CCN(Cc3ccc(Nc4ncc(F)c(-c5cc(F)c6nc(C)n(C(C)C)c6c5)n4)nc3)CC2)n1 [CPD-613, N-(6-(dimethylamino)pyridazin-3-yl)-2-((7-(2-(4-((6-((5-fluoro-4-(4-fluoro-1-isopropyl-2-methyl-1H-benzo[d]imidazol-6-yl)pyrimidin-2-yl)amino)pyridin-3-yl)methyl)piperazin-1-yl)acetamido)heptyl)amino)-6-(methylamino)nicotinamide]
- activity at 0.01 µM: > 85%
- activity at 0.1 µM: > 85%

Compound: CNc1ccc(C(=O)Nc2ccc(N(C)C)nn2)c(NCCNC(=O)CN2CCN(c3ccc(Nc4ncc5cc6n(c5n4)C4(CCCCC4)CNC6=O)nc3)CC2)n1 [CPD-640, N-(6-(dimethylamino)pyridazin-3-yl)-6-(methylamino)-2-((2-(2-(4-(6-((6′-oxo-7′,8′-dihydro-6′H-spiro[cyclohexane-1,9′-pyrazino[1′,2′:1,5]pyrrolo[2,3-d]pyrimidin]-2′-yl)amino)pyridin-3-yl)piperazin-1-yl)acetamido)ethyl)amino)nicotinamide]
- activity at 0.01 µM: > 85%
- activity at 0.1 µM: 55 to 85%

Compound: CNc1ccc(C(=O)Nc2ccc(N(C)C)nn2)c(NCCOCCC(=O)NC2CCC3(CC2)CC(Nc2ncc4ccc(=O)n(C5CCCC5)c4n2)C3)n1 (centres unmarked) [CPD-679, 2-((2-(3-((2-((8-cyclopentyl-7-oxo-7,8-dihydropyrido[2,3-d]pyrimidin-2-yl)amino)spiro[3.5]nonan-7-yl)amino)-3-oxopropoxy)ethyl)amino)-N-(6-(dimethylamino)pyridazin-3-yl)-6-(methylamino)nicotinamide]
- activity at 0.01 µM: > 85%
- activity at 0.1 µM: > 85%

Compound: CNc1ccc(C(=O)Nc2ccc(N(C)C)nn2)c(NCCCNC(=O)CN2CCN(c3ccc(Nc4ncc5cc6n(c5n4)C4(CCCCC4)CNC6=O)nc3)CC2)n1 [CPD-641, N-(6-(dimethylamino)pyridazin-3-yl)-6-(methylamino)-2-((3-(2-(4-(6-((6′-oxo-7′,8′-dihydro-6′H-spiro[cyclohexane-1,9′-pyrazino[1′,2′:1,5]pyrrolo[2,3-d]pyrimidin]-2′-yl)amino)pyridin-3-yl)piperazin-1-yl)acetamido)propyl)amino)nicotinamide]
- activity at 0.01 µM: > 85%
- activity at 0.1 µM: > 85%

Compound: CNc1ccc(C(=O)Nc2ccc(N(C)C)nn2)c(NCCCCCCCCNC(=O)CN2CCN(Cc3ccc(Nc4ncc(F)c(-c5cc(F)c6nc(C)n(C(C)C)c6c5)n4)nc3)CC2)n1 [CPD-614, N-(6-(dimethylamino)pyridazin-3-yl)-2-((8-(2-(4-((6-((5-fluoro-4-(4-fluoro-1-isopropyl-2-methyl-1H-benzo[d]imidazol-6-yl)pyrimidin-2-yl)amino)pyridin-3-yl)methyl)piperazin-1-yl)acetamido)octyl)amino)-6-(methylamino)nicotinamide]
- activity at 0.01 µM: > 85%
- activity at 0.1 µM: > 85%

Compound: CNc1ccc(C(=O)Nc2ccc(N(C)C)nn2)c(NCCCCCCC(=O)NC2CCC3(CC2)CC(Nc2ncc4ccc(=O)n(C5CCCC5)c4n2)C3)n1 (centres unmarked) [CPD-677, 2-((7-((2-((8-cyclopentyl-7-oxo-7,8-dihydropyrido[2,3-d]pyrimidin-2-yl)amino)spiro[3.5]nonan-7-yl)amino)-7-oxoheptyl)amino)-N-(6-(dimethylamino)pyridazin-3-yl)-6-(methylamino)nicotinamide]
- activity at 0.01 µM: > 85%
- activity at 0.1 µM: > 85%
